From ChEMBL document CHEMBL6078684, “Discovery of a Novel Non-invasive AR PROTAC Degrader for the Topical Treatment of Androgenetic Alopecia” (J Med Chem, 2024) come the findings set out here.

Data set [1] concerns Mus musculus. The data set can be described thus: Hair regeneration efficacy in testosterone induced male C57BL/6 mouse androgenetic alopecia model assessed as well formed stratum corneum in hair at 0.4 %, TOP administered once daily for 14 days with co-administration of 0.2% testosterone and measured after 28 days by SEM analysis. The data set is classed as functional, organism-based. The note with it: time 28.0 day.

Data set [2] is described as follows: Ratio of drug concentration in male ICR mouse skin to lungs at 4 mg/ml, TOP measured after 2 hrs by LC-MS/MS analysis. The data set is classed as ADME, tissue-based, Skin/Lung. The note with it: in vivo, topical_or_ocular.
Data set [3] concerns the target T1, Protein cereblon/Androgen receptor (Homo sapiens, UniProt P10275+Q96SW2). The data set can be described thus: PROTAC activity at CRBN/AR in human dermal papilla cell assessed as induction of AR degradation at 500 nM by Western blot analysis. As to conditions: time 2-24 hrs. The data set is classed as cell-based. A general note: A western blot detects proteins with antibodies after separation by electrophoresis.
Target sequence in this assay (P10275 whole entry, looked up): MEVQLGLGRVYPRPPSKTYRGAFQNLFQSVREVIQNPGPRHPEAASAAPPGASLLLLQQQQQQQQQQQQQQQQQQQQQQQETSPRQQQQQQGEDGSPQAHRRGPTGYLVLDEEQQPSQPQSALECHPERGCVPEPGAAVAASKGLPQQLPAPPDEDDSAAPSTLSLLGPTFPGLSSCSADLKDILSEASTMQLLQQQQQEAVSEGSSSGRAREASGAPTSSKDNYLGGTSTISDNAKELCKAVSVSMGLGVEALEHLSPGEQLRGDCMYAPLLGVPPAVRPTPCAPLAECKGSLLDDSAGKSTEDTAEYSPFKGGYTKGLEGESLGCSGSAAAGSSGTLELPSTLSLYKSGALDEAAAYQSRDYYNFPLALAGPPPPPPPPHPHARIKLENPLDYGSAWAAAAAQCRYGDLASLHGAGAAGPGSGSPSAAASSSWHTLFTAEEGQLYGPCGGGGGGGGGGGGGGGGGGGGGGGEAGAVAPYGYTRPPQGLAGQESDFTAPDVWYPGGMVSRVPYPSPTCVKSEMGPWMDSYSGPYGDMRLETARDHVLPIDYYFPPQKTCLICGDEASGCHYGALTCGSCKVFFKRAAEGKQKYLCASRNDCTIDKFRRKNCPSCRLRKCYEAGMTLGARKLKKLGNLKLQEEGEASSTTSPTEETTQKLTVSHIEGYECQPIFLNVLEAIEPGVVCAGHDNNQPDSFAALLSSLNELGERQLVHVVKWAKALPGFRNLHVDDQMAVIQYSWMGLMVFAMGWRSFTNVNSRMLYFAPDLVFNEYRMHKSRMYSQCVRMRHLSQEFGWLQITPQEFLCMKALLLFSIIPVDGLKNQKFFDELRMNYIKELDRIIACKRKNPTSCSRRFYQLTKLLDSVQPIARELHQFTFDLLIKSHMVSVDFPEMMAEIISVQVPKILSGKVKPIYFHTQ
Target sequence in this assay (Q96SW2 whole entry, looked up): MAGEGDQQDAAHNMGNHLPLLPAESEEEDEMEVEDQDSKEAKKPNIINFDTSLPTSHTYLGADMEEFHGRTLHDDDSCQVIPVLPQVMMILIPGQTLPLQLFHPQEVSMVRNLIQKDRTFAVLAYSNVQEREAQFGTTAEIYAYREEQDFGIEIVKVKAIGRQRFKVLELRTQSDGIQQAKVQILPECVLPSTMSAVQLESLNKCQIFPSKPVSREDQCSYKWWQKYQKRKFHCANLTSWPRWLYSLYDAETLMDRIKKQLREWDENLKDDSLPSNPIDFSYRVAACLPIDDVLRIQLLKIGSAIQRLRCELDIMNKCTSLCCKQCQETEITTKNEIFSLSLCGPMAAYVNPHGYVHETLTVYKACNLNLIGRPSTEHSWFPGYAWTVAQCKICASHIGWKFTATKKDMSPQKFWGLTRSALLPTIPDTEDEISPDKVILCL

Data set [4] concerns the target Protein cereblon/Androgen receptor (Mus musculus) (UniProt P19091+Q8C7D2). The data set can be described thus: In vivo PROTAC activity at CRBN/AR in testosterone induced male C57BL/6 mouse androgenetic alopecia model assessed as decrease in AR protein level in skin at 0.4 % TOP administered once daily for 14 days with co-administration of 0.2% testosterone for 28 days by Western blot analysis relative to control. The data set is classed as functional, organism-based. The arrangement: scale not given: the % may be the effect or the level left. The note with it: time 14.0 day.

Data set [5] is described as follows: AUC (0 to t) in male ICR mouse skin at 4 mg/ml, TOP measured after 12 hrs by LC-MS/MS analysis. The data set is classed as ADME, tissue-based, Skin of body. The note with it: in vivo, topical_or_ocular.
Data set [6] in a line: Ratio of drug concentration in male ICR mouse skin to plasma at 4 mg/ml, TOP measured after 2 hrs by LC-MS/MS analysis. The data set is classed as ADME, cell-free. The note with it: other tissue, topical_or_ocular.
Data set [7] deals with T1, Protein cereblon/Androgen receptor. The experiment in a line: PROTAC activity at CRBN/AR in human dermal papilla cells assessed as inhibition of TGF-beta1 release by measuring fold change in TGF-beta1 concentration at 1 uM preincubated with testosterone for 24 hrs followed by compound addition and measured after 48 hrs by ELISA relative to enzalutamide. The note with it: Human dermal papilla cell. The data set is classed as cell-based.
Target sequence in this assay (P10275 whole entry, looked up): as the sequence (P10275 whole entry, looked up) above
Target sequence in this assay (Q96SW2 whole entry, looked up): as the sequence (Q96SW2 whole entry, looked up) above

The test system of data set [8] is Mus musculus. The experiment in a line: Hair regeneration efficacy in testosterone induced male C57BL/6 mouse androgenetic alopecia model assessed as generation of thick hair with intact scales at 0.4 %, TOP administered once daily for 14 days with co-administration of 0.2% testosterone and measured after 28 days by SEM analysis. The data set is classed as functional, organism-based. The note with it: time 28.0 day.

Data set [9] deals with T1, Protein cereblon/Androgen receptor. The experiment in a line: PROTAC activity at CRBN/AR in human dermal papilla cells assessed as inhibition of TGF-beta1 release by measuring TGF-beta1 concentration at 1 uM preincubated with testosterone for 24 hrs followed by compound addition and measured after 48 hrs by ELISA. The note with it: Human dermal papilla cell. The data set is classed as cell-based. For orientation: An ELISA detects its analyte on a solid surface through an enzyme-linked reagent.
Target sequence in this assay (P10275 whole entry, looked up): as the sequence (P10275 whole entry, looked up) above
Target sequence in this assay (Q96SW2 whole entry, looked up): as the sequence (Q96SW2 whole entry, looked up) above

The target is the same in data set [10]. The data set can be described thus: PROTAC activity at CRBN/AR in human dermal papilla cell assessed as induction of AR degradation by measuring maximal efficacy after 24 hrs by Western blot analysis relative to control. The data set is classed as cell-based.
Target sequence in this assay (P10275 whole entry, looked up): as the sequence (P10275 whole entry, looked up) above
Target sequence in this assay (Q96SW2 whole entry, looked up): as the sequence (Q96SW2 whole entry, looked up) above
Data set [11] in a line: Ratio of drug concentration in male ICR mouse skin to plasma at 4 mg/ml, TOP measured after 0.25 hrs by LC-MS/MS analysis. The data set is classed as ADME, cell-free. As to conditions: topical or ocular.
Data set [12] in a line: Ratio of drug concentration in male ICR mouse skin to liver at 4 mg/ml, TOP measured after 4 hrs by LC-MS/MS analysis. The data set is classed as ADME, tissue-based. As to conditions: in vivo, topical_or_ocular.
Data set [13] can be described thus: Ratio of drug concentration in male ICR mouse skin to heart at 4 mg/ml, TOP measured after 1 hrs by LC-MS/MS analysis. The data set is classed as ADME, tissue-based. The note with it: in vivo, topical_or_ocular.
Data set [14] can be described thus: Ratio of drug concentration in male ICR mouse skin to heart at 4 mg/ml, TOP measured after 8 hrs by LC-MS/MS analysis. The data set is classed as ADME, tissue-based. As to conditions: in vivo, topical_or_ocular.
Data set [15] is described as follows: Ratio of drug concentration in male ICR mouse skin to spleen at 4 mg/ml, TOP measured after 1 hrs by LC-MS/MS analysis. The data set is classed as ADME, tissue-based. The note with it: in vivo, topical_or_ocular.
Data set [16] addresses T1, Protein cereblon/Androgen receptor. The experiment in a line: PROTAC activity at CRBN/AR in human dermal papilla cell assessed as induction of AR degradation measured after 24 hrs by Western blot analysis. The data set is classed as cell-based.
Target sequence in this assay (P10275 whole entry): as the sequence (P10275 whole entry, looked up) above
Target sequence in this assay (Q96SW2 whole entry): as the sequence (Q96SW2 whole entry, looked up) above
Data set [17] relates to Mus musculus. The data set can be described thus: Hair regeneration efficacy in testosterone induced male C57BL/6 mouse androgenetic alopecia model assessed as entry of hair follicles to anagen phase by measuring high density of enlarged hair bulbs in subcutaneous tissue at 0.1 %, TOP administered once daily for 14 days with co-administration of 0.2% testosterone for 28 days by H and E staining based analysis. The data set is classed as functional, organism-based. The note with it: time 14.0 day.

The nature of data set [18]: Drug uptake in male ICR mouse spleen at 4 mg/ml, TOP measured after 12 hrs by LC-MS/MS analysis. The data set is classed as ADME, tissue-based. The note with it: in vivo, topical_or_ocular.
Data set [19] can be described thus: Ratio of drug concentration in male ICR mouse skin to spleen at 4 mg/ml, TOP measured after 0.25 hrs by LC-MS/MS analysis. The data set is classed as ADME, tissue-based. The note with it: in vivo, topical_or_ocular.

Active and inactive are the calls of the source. The rule behind the calls is not given here. A value given as a limit tells only on which side of the number the result lay.

Chain of Protein cereblon/Androgen receptor (Mus musculus) (P19091 whole entry, looked up): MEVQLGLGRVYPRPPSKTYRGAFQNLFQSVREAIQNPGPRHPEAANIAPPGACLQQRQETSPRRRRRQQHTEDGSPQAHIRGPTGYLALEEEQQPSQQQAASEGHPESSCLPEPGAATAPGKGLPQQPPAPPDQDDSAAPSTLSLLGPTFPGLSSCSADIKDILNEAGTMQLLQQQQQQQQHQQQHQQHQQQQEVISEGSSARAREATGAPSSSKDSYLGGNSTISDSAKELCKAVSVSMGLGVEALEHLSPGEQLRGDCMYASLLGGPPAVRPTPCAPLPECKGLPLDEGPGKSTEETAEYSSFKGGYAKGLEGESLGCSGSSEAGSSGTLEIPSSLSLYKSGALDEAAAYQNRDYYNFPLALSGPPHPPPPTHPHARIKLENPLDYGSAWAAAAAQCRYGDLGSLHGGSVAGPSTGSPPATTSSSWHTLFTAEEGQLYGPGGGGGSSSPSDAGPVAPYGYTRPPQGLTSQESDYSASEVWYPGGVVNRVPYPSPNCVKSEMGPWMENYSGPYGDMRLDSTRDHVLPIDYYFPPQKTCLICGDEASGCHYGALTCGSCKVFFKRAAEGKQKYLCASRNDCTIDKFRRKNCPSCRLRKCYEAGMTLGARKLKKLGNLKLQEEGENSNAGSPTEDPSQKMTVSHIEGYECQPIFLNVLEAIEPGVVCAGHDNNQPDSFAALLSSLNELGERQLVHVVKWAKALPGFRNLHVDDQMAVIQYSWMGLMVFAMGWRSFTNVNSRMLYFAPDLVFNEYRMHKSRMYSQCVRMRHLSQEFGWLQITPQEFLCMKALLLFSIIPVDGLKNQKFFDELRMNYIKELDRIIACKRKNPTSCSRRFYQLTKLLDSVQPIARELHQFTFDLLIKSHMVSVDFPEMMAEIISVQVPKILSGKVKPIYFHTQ
Chain of Protein cereblon/Androgen receptor (Mus musculus) (Q8C7D2 whole entry, looked up): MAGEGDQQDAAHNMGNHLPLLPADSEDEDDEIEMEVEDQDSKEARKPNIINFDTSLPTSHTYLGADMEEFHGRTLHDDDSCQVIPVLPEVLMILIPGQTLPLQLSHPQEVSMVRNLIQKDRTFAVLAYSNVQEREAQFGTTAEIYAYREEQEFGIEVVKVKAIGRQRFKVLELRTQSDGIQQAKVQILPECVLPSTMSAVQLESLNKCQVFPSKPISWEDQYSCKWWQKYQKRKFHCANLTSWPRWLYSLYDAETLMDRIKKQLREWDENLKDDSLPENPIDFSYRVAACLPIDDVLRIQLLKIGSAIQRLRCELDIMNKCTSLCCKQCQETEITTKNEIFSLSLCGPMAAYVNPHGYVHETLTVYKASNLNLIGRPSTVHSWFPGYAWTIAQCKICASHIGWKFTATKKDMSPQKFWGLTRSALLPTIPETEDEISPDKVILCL

A word on the Emax: it is the maximal effect, on the per cent scale that the assay sets. One may read the Kp as the ratio of the level in a tissue or fluid to that in plasma or blood. Broadly, the DC50 is the midpoint of the concentration-degradation curve. Turning to `N#Cc1ccc(O[C@H]2CC[C@H](NC(=O)c3ccc(C4CCN(CC5CCCN(c6ccc(C(=O)NC7CCC(=O)NC7=O)cc6)C5)CC4)cc3)CC2)cc1Cl` (some centres undefined), the result with Mus musculus [1] and with Mus musculus [8] was Active. The Ratio is listed as 198.98 in data set [2]; 1098.91 in [6]; 629.99 in [12]; 996.6 in data set [13]; 754.91 in [14]; 472.95 in data set [15]. Further, in data set [19], the Ratio is 510.81. Moreover, the Activity entry in data set [3] was “Time-dependent-effect”; in data set [4], more than 50%; in data set [9] it was 736 pg/mL; in the data set on Mus musculus [17] it was “Active; Less Effective Compared To High Dose Compound Group And Minoxidil Group”. This compound also yielded an AUCt in data set [5] of 651924.91 ng·h/g. Moreover, the fold change (FC) in data set [7] is 0.62. Further, the Emax in data set [10] came out at 63%. Also, in data set [11], the Kp at 0.25 h came to 117. The DC50 in data set [16] is 262 nM. Moreover, in [18], the Drug uptake result is “Active”.
